“And” between values parts separate entries of the source, which are not always exact repeats. Equal entries are not always repeated.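 Cultured in 96-well plates, cells were exposed to test compound for 48 hours across five concentrations. GI50 = concentration required for 50% inhibition of growth. TGI: total growth inhibition.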
Assays:
Test in all cases: NCI tumour cell line growth inhibition, 48 h
786-0 renal = test system: 786-0 renal
A498 renal = test system: A498 renal
A549 NSCLC = test system: A549 NSCLC
ACHN renal = test system: ACHN renal
BT-549 breast = test system: BT-549 breast
CAKI-1 renal = test system: CAKI-1 renal
CCRF-CEM leukemia = test system: CCRF-CEM leukemia
COLO 205 colon = test system: COLO 205 colon
DLD-1 colon = test system: DLD-1 colon
DMS 114 small cell lung = test system: DMS 114 small cell lung
DMS 273 small cell lung = test system: DMS 273 small cell lung
EKVX NSCLC = test system: EKVX NSCLC
HCC-2998 colon = test system: HCC-2998 colon
HCT-116 colon = test system: HCT-116 colon
HCT-15 colon = test system: HCT-15 colon
HL-60(TB) leukemia = test system: HL-60(TB) leukemia
HOP-62 NSCLC = test system: HOP-62 NSCLC
HOP-92 NSCLC = test system: HOP-92 NSCLC
HT29 colon = test system: HT29 colon
IGROV1 ovarian = test system: IGROV1 ovarian
K-562 leukemia = test system: K-562 leukemia
KM12 colon = test system: KM12 colon
KM20L2 colon = test system: KM20L2 colon
LOX IMVI melanoma = test system: LOX IMVI melanoma
LXFL 529 NSCLC = test system: LXFL 529 NSCLC
M14 melanoma = test system: M14 melanoma
M19-MEL melanoma = test system: M19-MEL melanoma
MALME-3M melanoma = test system: MALME-3M melanoma
MCF7 breast = test system: MCF7 breast
MDA-MB-231 breast = test system: MDA-MB-231 breast
MOLT-4 leukemia = test system: MOLT-4 leukemia
NCI-H23 lung = test system: NCI-H23 lung
NCI-H460 lung = test system: NCI-H460 lung
NCI-H522 lung = test system: NCI-H522 lung
NCI/ADR-RES ovarian = test system: NCI/ADR-RES ovarian
OVCAR-3 ovarian = test system: OVCAR-3 ovarian
OVCAR-4 ovarian = test system: OVCAR-4 ovarian
OVCAR-5 ovarian = test system: OVCAR-5 ovarian
OVCAR-8 ovarian = test system: OVCAR-8 ovarian
P388 leukemia = test system: P388 leukemia
RPMI-8226 leukemia = test system: RPMI-8226 leukemia
RXF 393 renal = test system: RXF 393 renal
SF-268 CNS = test system: SF-268 CNS
SF-295 CNS = test system: SF-295 CNS
SF-539 CNS = test system: SF-539 CNS
SK-MEL-2 melanoma = test system: SK-MEL-2 melanoma
SK-MEL-28 melanoma = test system: SK-MEL-28 melanoma
SK-MEL-5 melanoma = test system: SK-MEL-5 melanoma
SK-OV-3 ovarian = test system: SK-OV-3 ovarian
SN12C renal = test system: SN12C renal
SN12K1 renal = test system: SN12K1 renal
SNB-19 CNS = test system: SNB-19 CNS
SNB-75 CNS = test system: SNB-75 CNS
SNB-78 CNS = test system: SNB-78 CNS
SR leukemia = test system: SR leukemia
SW-620 colon = test system: SW-620 colon
T-47D breast = test system: T-47D breast
TK-10 renal = test system: TK-10 renal
U251 CNS = test system: U251 CNS
UACC-257 melanoma = test system: UACC-257 melanoma
UACC-62 melanoma = test system: UACC-62 melanoma
UO-31 renal = test system: UO-31 renal
XF 498 CNS = test system: XF 498 CNS

For `CCOC(=O)Nc1ccc2c(c1)N(C(=O)CCN(CC)CC)c1ccccc1S2`, the TGI (786-0 renal) was 69.8 µM, the GI50 (A498 renal) was 33.3 µM and the TGI (A498 renal) was 58.9 µM and 99.7 µM. It also gave a GI50 (A549 NSCLC) of 58.3 µM, a TGI (A549 NSCLC) of 125 µM and a TGI (ACHN renal) of over 95.5 µM. It also gave a TGI (BT-549 breast) of 97.2 µM, a GI50 (CAKI-1 renal) of 11.4 µM and a TGI (CAKI-1 renal) of 30.6 µM. The GI50 (CCRF-CEM leukemia) was 17 µM, the TGI (CCRF-CEM leukemia) was > 91.2 µM and 66.9 µM and the GI50 (COLO 205 colon) was 47 µM. The TGI (COLO 205 colon) was 47.7 µM and 120 µM, the GI50 (DLD-1 colon) was 32.9 µM and the TGI (DLD-1 colon) was > 87.6 µM and 105 µM. For the same compound, the GI50 (DMS 114 small cell lung) was 36.2 µM, the TGI (DMS 114 small cell lung) was 40.6 µM and 99.6 µM and the TGI (DMS 273 small cell lung) was > 68.8 µM and 77.9 µM. For the same compound, the GI50 (EKVX NSCLC) was 74.2 µM, the TGI (EKVX NSCLC) was 141 µM and the TGI (HCC-2998 colon) was 32.8 µM and 75.7 µM. The GI50 (HCT-116 colon) was 12.5 µM, the TGI (HCT-116 colon) was > 31.6 µM and 39.9 µM and the GI50 (HCT-15 colon) was 35.7 µM. For the same compound, the TGI (HCT-15 colon) was > 79.5 µM and 99.4 µM, the GI50 (HL-60(TB) leukemia) was 16.1 µM and the TGI (HL-60(TB) leukemia) was 45.9 µM and 57.7 µM. The GI50 (HOP-62 NSCLC) was 44.2 µM, the TGI (HOP-62 NSCLC) was 134 µM and the GI50 (HOP-92 NSCLC) was 14.2 µM. For the same compound, the TGI (HOP-92 NSCLC) was 67.8 µM and 73.5 µM, the GI50 (HT29 colon) was 29.6 µM and the TGI (HT29 colon) was 33.9 µM and 96.4 µM. The GI50 (IGROV1 ovarian) was 64 µM, the TGI (IGROV1 ovarian) was > 94.1 µM and 138 µM and the GI50 (K-562 leukemia) was 19.7 µM. For the same compound, the TGI (K-562 leukemia) was over 81.8 µM, the GI50 (KM12 colon) was 35.9 µM and the TGI (KM12 colon) was 24.6 µM and 110 µM. For the same compound, the GI50 (KM20L2 colon) was 13.9 µM, the TGI (KM20L2 colon) was 38.7 µM and 39.7 µM and the TGI (LOX IMVI melanoma) was 37.6 µM and 67 µM. It also gave a TGI (LXFL 529 NSCLC) of 42.5 µM, a TGI (M14 melanoma) of 48.6 µM and a GI50 (M19-MEL melanoma) of 56.2 µM. For the same compound, the TGI (M19-MEL melanoma) was > 71.1 µM and 124 µM, the GI50 (MALME-3M melanoma) was 29.1 µM and the TGI (MALME-3M melanoma) was 34.4 µM and 70.3 µM. It also gave a GI50 (MCF7 breast) of 31.3 µM, a TGI (MCF7 breast) of over 94.3 µM and a TGI (MDA-MB-231 breast) of 95.1 µM. The GI50 (MOLT-4 leukemia) was 13.7 µM, the TGI (MOLT-4 leukemia) was 71.1 µM and 44.3 µM and the GI50 (NCI-H23 lung) was 36.4 µM. For the same compound, the TGI (NCI-H23 lung) was > 90.5 µM and 114 µM, the TGI (NCI-H460 lung) was 57.1 µM and the GI50 (NCI-H522 lung) was 17 µM. For the same compound, the TGI (NCI-H522 lung) was 37.1 µM and 167 µM, the TGI (NCI/ADR-RES ovarian) was 86.8 µM and the GI50 (OVCAR-3 ovarian) was 42.3 µM. For the same compound, the TGI (OVCAR-3 ovarian) was > 78.9 µM and 107 µM, the GI50 (OVCAR-4 ovarian) was 84 µM and the TGI (OVCAR-4 ovarian) was 234 µM. The GI50 (OVCAR-5 ovarian) was 101 µM, the TGI (OVCAR-5 ovarian) was 99.9 µM and 178 µM and the GI50 (OVCAR-8 ovarian) was 1.51 µM. For the same compound, the TGI (OVCAR-8 ovarian) was 2.5 µM, the TGI (P388 leukemia) was 32.2 µM and the GI50 (RPMI-8226 leukemia) was 13 µM. For the same compound, the TGI (RPMI-8226 leukemia) was 51 µM and 47.5 µM, the GI50 (RXF 393 renal) was 15.4 µM and the TGI (RXF 393 renal) was 64.1 µM and 59.5 µM. The GI50 (SF-268 CNS) was 55 µM, the TGI (SF-268 CNS) was > 74.6 µM and 128 µM and the TGI (SF-295 CNS) was 54.4 µM. For the same compound, the GI50 (SF-539 CNS) was 12.7 µM, the TGI (SF-539 CNS) was 48.5 µM and 43.5 µM and the GI50 (SK-MEL-2 melanoma) was 30.5 µM. For the same compound, the TGI (SK-MEL-2 melanoma) was 43.6 µM and 83.7 µM, the GI50 (SK-MEL-28 melanoma) was 60.3 µM and the TGI (SK-MEL-28 melanoma) was 57.1 µM and 126 µM. The GI50 (SK-MEL-5 melanoma) was 36.1 µM, the TGI (SK-MEL-5 melanoma) was 34.3 µM and 100 µM and the GI50 (SK-OV-3 ovarian) was 106 µM. The TGI (SK-OV-3 ovarian) was 70.7 µM and 183 µM, the GI50 (SN12C renal) was 24.3 µM and the TGI (SN12C renal) was > 76.8 µM and 85.3 µM. The TGI (SN12K1 renal) was 95.3 µM, the GI50 (SNB-19 CNS) was 13.5 µM and the TGI (SNB-19 CNS) was 41.1 µM. The GI50 (SNB-75 CNS) was 11.7 µM, the TGI (SNB-75 CNS) was 39.2 µM and 62.7 µM and the GI50 (SNB-78 CNS) was 41 µM. For the same compound, the TGI (SR leukemia) was 43.4 µM, the GI50 (SW-620 colon) was 52.5 µM and the TGI (SW-620 colon) was 59.3 µM and 122 µM. It also gave a TGI (T-47D breast) of 87.9 µM, a TGI (TK-10 renal) of 76.6 µM and a GI50 (U251 CNS) of 39.8 µM. For the same compound, the TGI (U251 CNS) was > 72.1 µM and 108 µM, the GI50 (UACC-257 melanoma) was 12.4 µM and the TGI (UACC-257 melanoma) was 32.3 µM and 35.4 µM. The GI50 (UACC-62 melanoma) was 46.7 µM, the TGI (UACC-62 melanoma) was 52.8 µM and 112 µM and the TGI (UO-31 renal) was over 89.5 µM. The GI50 (XF 498 CNS) was 0.626 µM and the TGI (XF 498 CNS) was 33.4 µM and 10 µM.
